This experiment has as its system Plasmodium falciparum. The experiment is described as follows: Inhibitory activity against Plasmodium falciparum Dd2 in erythrocytes. It counts as functional, organism-based.
With `Cc1ccc(CC(=O)Nc2ccc(NC(=O)/C=C/c3ccc(Cl)cc3)cc2C(=O)c2ccccc2)cc1`, the IC50 – broadly, the concentration that gives 50% inhibition – was found to be 5.5 µM.

Consider `Cc1ccc(CC(=O)Nc2ccc(NC(=O)/C=C/c3ccc(C=O)cc3)cc2C(=O)c2ccccc2)cc1`, for which the IC50 amounted to 40 µM. This IC50 is about 7.3-fold higher than that of the compound before.

The compound `Cc1ccc(CC(=O)Nc2ccc(NC(=O)/C=C/c3ccc(C#N)cc3)cc2C(=O)c2ccccc2)cc1` showed an IC50 greater than 100 µM.

As to `Cc1ccc(CC(=O)Nc2ccc(NC(=O)/C=C/c3ccc(C(C)C)cc3)cc2C(=O)c2ccccc2)cc1`, the IC50 is 1.2 µM.

The compound `Cc1ccc(CC(=O)Nc2ccc(NC(=O)/C=C/c3ccc([N+](=O)[O-])cc3)cc2C(=O)c2ccccc2)cc1` showed an IC50 of 6.5 µM.

With `Cc1ccc(CC(=O)Nc2ccc(NC(=O)CCc3ccccc3)cc2C(=O)c2ccccc2)cc1`, the midpoint of inhibition, the IC50, lay at 2.7 µM.

On to `Cc1ccc(CC(=O)Nc2ccc(NC(=O)/C=C/c3ccc(C(C)(C)C)cc3)cc2C(=O)c2ccccc2)cc1`, for which 3 µM corresponded to half-maximal inhibition (IC50).

The compound `C[C@@H]1CC[C@H]2[C@@H](C)C(=O)O[C@@H]3O[C@@]4(C)CC[C@@H]1[C@]32OO4` [ARTEMISININ] showed an IC50 of 0.018 µM.

Turning to `CCOc1ccc(/C=C/C(=O)Nc2ccc(NC(=O)Cc3ccc(C)cc3)c(C(=O)c3ccccc3)c2)cc1`, 0.85 µM corresponded to half-maximal inhibition (IC50).

`C=C[C@H]1CN2CC[C@H]1C[C@H]2[C@H](O)c1ccnc2ccc(OC)cc12` [QUININE] displayed an IC50 of 0.38 µM.

As to `CCc1ccc(/C=C/C(=O)Nc2ccc(NC(=O)Cc3ccc(C)cc3)c(C(=O)c3ccccc3)c2)cc1`, the IC50 is 1.2 µM.

As to `COc1ccc(/C=C/C(=O)Nc2ccc(NC(=O)Cc3ccc(C)cc3)c(C(=O)c3ccccc3)c2)cc1`, the IC50 came out at 1.3 µM.

Regarding `CC1(C)N=C(N)N=C(N)N1c1ccc(Cl)cc1` [CYCLOGUANIL], inhibition was half-maximal at 2.2 µM (IC50). Against the preceding compound, the IC50 is about 1.7-fold higher.

As to `Cc1ccc(CC(=O)Nc2ccc(NC(=O)/C=C/c3ccc(Br)cc3)cc2C(=O)c2ccccc2)cc1`, 3.2 µM corresponded to half-maximal inhibition (IC50).

Consider `COC(=O)c1ccc(/C=C/C(=O)Nc2ccc(NC(=O)Cc3ccc(C)cc3)c(C(=O)c3ccccc3)c2)cc1`, for which the half-inhibitory concentration (IC50) was determined as 1 µM.

Consider `CCCCOc1ccc(/C=C/C(=O)Nc2ccc(NC(=O)Cc3ccc(C)cc3)c(C(=O)c3ccccc3)c2)cc1`, for which half-maximal inhibition (IC50) required 1.1 µM.

In the case of `Cc1ccc(CC(=O)Nc2ccc(NC(=O)/C=C/c3ccc(N)cc3)cc2C(=O)c2ccccc2)cc1`, the IC50 is 5.5 µM.

Compound `OC(c1cc(C(F)(F)F)nc2c(C(F)(F)F)cccc12)C1CCCCN1` (stereo unspecified) [MEFLOQUINE] yielded an IC50 of 0.057 µM.

`CCCOc1ccc(/C=C/C(=O)Nc2ccc(NC(=O)Cc3ccc(C)cc3)c(C(=O)c3ccccc3)c2)cc1` registered an IC50 of 0.2 µM.

Compound `CCCCN(CCCC)CCC(O)c1cc2c(Cl)cc(Cl)cc2c2cc(C(F)(F)F)ccc12` (stereo unspecified) [HALOFANTRINE] displayed an IC50 of 0.0093 µM. Compared with the last compound, the IC50 is about 22-fold lower.

On to `Cc1ccc(/C=C/C(=O)Nc2ccc(NC(=O)Cc3ccc(C)cc3)c(C(=O)c3ccccc3)c2)cc1`, for which it took 1.4 µM to reach half-maximal inhibition (IC50).

On to `Cc1ccc(CC(=O)Nc2ccc(NC(=O)/C=C/c3ccc(C(F)(F)F)cc3)cc2C(=O)c2ccccc2)cc1`, for which the IC50 came to 5.7 µM.

On to `Cc1ccc(CC(=O)Nc2ccc(NC(=O)/C=C/c3ccccc3)cc2C(=O)c2ccccc2)cc1`, for which half-maximal inhibition (IC50) required 5.8 µM.

The compound `Cc1ccc(CC(=O)Nc2ccc(NC(=O)/C=C/c3ccc(C=C(C#N)C#N)cc3)cc2C(=O)c2ccccc2)cc1` had an IC50 of 43 µM.

`O=C1C(O)=C([C@H]2CC[C@H](c3ccc(Cl)cc3)CC2)C(=O)c2ccccc21` [ATOVAQUONE]: inhibition was half-maximal at 0.001 µM (IC50). Compared with the last compound, the IC50 is about 43000-fold lower.

`CCc1nc(N)nc(N)c1-c1ccc(Cl)cc1` [PYRIMETHAMINE]: half-maximal inhibition (IC50) required 2.5 µM. This IC50 is about 2500-fold higher than that of the compound before.
